In PMC9120017, “Inhibition mechanism of the chloride channel TMEM16A by the pore blocker 1PBC” (Nature Communications, 2022):

Target: T1, mouse TMEM16F (Mus musculus, UniProt Q6P9J9)
T1 construct: expressed in transfected cells; host or cells: HEK293T
T1 sequence (Q6P9J9 1-911): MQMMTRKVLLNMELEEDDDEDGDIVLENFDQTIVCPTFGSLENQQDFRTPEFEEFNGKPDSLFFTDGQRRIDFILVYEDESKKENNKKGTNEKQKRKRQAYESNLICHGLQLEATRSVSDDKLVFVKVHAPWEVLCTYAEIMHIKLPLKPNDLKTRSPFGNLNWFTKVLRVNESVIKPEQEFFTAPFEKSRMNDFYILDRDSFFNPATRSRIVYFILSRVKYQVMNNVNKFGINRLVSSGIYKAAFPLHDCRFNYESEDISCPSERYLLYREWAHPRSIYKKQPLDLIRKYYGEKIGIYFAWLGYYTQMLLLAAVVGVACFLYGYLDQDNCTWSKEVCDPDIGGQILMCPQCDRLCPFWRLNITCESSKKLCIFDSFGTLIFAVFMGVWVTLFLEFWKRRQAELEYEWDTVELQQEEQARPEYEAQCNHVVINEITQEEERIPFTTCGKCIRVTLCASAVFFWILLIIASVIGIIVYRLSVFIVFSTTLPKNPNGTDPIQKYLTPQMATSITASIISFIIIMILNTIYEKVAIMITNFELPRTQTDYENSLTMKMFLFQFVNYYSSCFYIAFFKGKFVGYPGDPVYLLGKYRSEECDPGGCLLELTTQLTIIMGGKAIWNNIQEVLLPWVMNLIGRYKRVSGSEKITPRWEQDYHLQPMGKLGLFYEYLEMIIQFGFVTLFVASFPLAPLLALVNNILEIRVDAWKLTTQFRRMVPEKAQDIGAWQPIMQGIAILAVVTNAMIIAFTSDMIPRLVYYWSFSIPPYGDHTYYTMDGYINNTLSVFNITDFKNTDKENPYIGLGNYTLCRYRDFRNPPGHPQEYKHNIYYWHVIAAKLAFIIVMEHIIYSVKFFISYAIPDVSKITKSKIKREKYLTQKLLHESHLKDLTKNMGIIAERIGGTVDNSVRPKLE
Assay: Inside-out patch recording of 1PBC block, TMEM16F
Format: cell-based
Conditions: 300 µM Ca2+
Description: HEK293T cells (ATCC CRL-1573) were maintained in Dulbecco’s modified Eagle’s medium (DMEM; Sigma-Aldrich) supplemented with 10 U ml^−1 penicillin, 0.1 mg ml^−1 streptomycin (Sigma-Aldrich), 2 mM L-glutamine (Sigma-Aldrich), and 10% FBS (Sigma-Aldrich) in a humidified atmosphere containing 5% CO2 at 37 °C. HEK293S GnTI^− cells (ATCC CRL-3022) were maintained in HyClone HyCell TransFx-H medium (GE Healthcare) supplemented with 10 U ml^−1 penicillin, 0.1 mg ml^−1 streptomycin, 4 mM L-glutamine, 0.15% poloxamer 188 (Sigma-Aldrich), and 1% FBS in an atmosphere containing 5% CO2 at 185 rpm at 37 °C. The ac splice variant of mouse TMEM16A (UniProt ID: Q8BHY3), mouse TMEM16B (UniProt ID: Q8CFW1), or mouse TMEM16F (UniProt ID: Q6P9J9) bearing a 3C cleavage site, a Venus YFP, a Myc tag, and a Streptavidin-binding peptide (SBP) downstream of the open reading frame in a modified pcDNA3.1 vector (Invitrogen) were used as described previously[21],[31]. Mutations were introduced using a modified QuikChange method[58] and were verified by sequencing.
HEK293T cells were transfected with 3–4 μg DNA per 6 cm Petri dish using the calcium phosphate co-precipitation method and were used within 24–96 h after transfection. Recordings were performed on inside-out patches excised from HEK293T cells expressing the construct of interest. Patch pipettes were pulled from borosilicate glass capillaries (O.D. 1.5 mm, I.D. 0.86 mm, Sutter Instrument) and were fire-polished with a microforge (Narishige) before use. Pipette resistance was typically 3–8 MΩ when filled with the recording solutions detailed below. Seal resistance was typically 4 GΩ or higher. Voltage-clamp recordings were made using Axopatch 200B, Digidata 1550, and Clampex 10.7 (Molecular Devices). Analog signals were filtered with the in-built 4-pole Bessel filter at 10 kHz and were digitized at 20 kHz. Solution exchange was achieved using a gravity-fed system through a theta glass pipette mounted on an ultra-fast piezo-driven stepper (Siskiyou). […] All recordings were performed at 20 °C.
A symmetrical ionic condition was used throughout. Stock solution with Ca^2+-EGTA contained 150 mM NaCl, 5.99 mM Ca(OH)2, 5 mM EGTA, and 10 mM HEPES at pH 7.40. Stock solution with EGTA contained 150 mM NaCl, 5 mM EGTA, and 10 mM HEPES at pH 7.40. Free Ca^2+ concentrations were adjusted by mixing the stock solutions at the required ratios calculated using the WEBMAXC program (http://web.stanford.edu/~cpatton/webmaxcS.htm). Patch pipettes were filled with the stock solution with Ca^2+-EGTA, which has a free Ca^2+ concentration of 1 mM. 1PBC (ChemBridge) stock was reconstituted in anhydrous DMSO (Sigma-Aldrich) at 100 mM and stored at −20 °C. Working solutions with 1PBC were prepared by serial dilution. Unless otherwise stated, experiments were performed at a saturating Ca^2+ concentration as shown in Supplementary Table 1 and the primary data were corrected for current rundown as described previously[21],[25].
Concentration-response relations, obtained from the ratio of the I-V plots before and after the application of the blocker, were fitted to the Hill equation,1 I/Imax=1/1+IC50/[blocker]^h where I/Imax is the normalized current responses, IC50 defines the concentration at which inhibition is at its half-maximum, and h is the Hill coefficient.

remaining activity at 3 µM (3 µM 1PBC, +80 mV, read-out: I/Imax): 100%
remaining activity at 10 µM (10 µM 1PBC, +80 mV, read-out: I/Imax): 98.7%
remaining activity at 30 µM (30 µM 1PBC, +80 mV, read-out: I/Imax): 101%
remaining activity at 100 µM (100 µM 1PBC, +80 mV, read-out: I/Imax): 100%
Inhibition of the current mediated by the scramblase TMEM16F (within the same concentration range): ineffective
Structure (SMILES): N#Cc1c(C(F)(F)F)cc(O)n2c1nc1ccccc12 [1PBC]
